Reference: PMC11435058, “Synthesis of New Thiazole-Privileged Chalcones as Tubulin Polymerization Inhibitors with Potential Anticancer Activities” (Pharmaceuticals, 2024)

Assays:
SNB-19 = experiment: cells; settings: Homo sapiens
RPMI-8226 = experiment: NCI-60 anticancer screen (SRB; single dose and five doses); settings: Homo sapiens
SR = experiment: as above; settings: Homo sapiens
EKVX = experiment: as above; settings: Homo sapiens
HOP-62 = experiment: as above; settings: Homo sapiens
NCI-H23 = experiment: as above; settings: Homo sapiens
HCC-2998 = experiment: as above
HCT-116 = experiment: as above; settings: Homo sapiens
HT29 = experiment: as above; settings: Homo sapiens
KM12 = experiment: as above; settings: Homo sapiens
SF-295 = experiment: as above; settings: Homo sapiens
SF-539 = experiment: as above; settings: Homo sapiens
LOX IMVI = experiment: as above; settings: Homo sapiens
MDA-MB-435 = experiment: as above; settings: Homo sapiens
SK-MEL-5 = experiment: as above; settings: Homo sapiens
IGROV1 = experiment: as above; settings: Homo sapiens
OVCAR-4 = experiment: as above; settings: Homo sapiens
OVCAR-5 = experiment: as above; settings: Homo sapiens
OVCAR-8 = experiment: as above; settings: Homo sapiens
NCI/ADR-RES = experiment: as above; settings: Homo sapiens
SK-OV-3 = experiment: as above; settings: Homo sapiens
CAKI-1 = experiment: as above; settings: Homo sapiens
TK-10 = experiment: as above; settings: Homo sapiens
UO-31 = experiment: as above; settings: Homo sapiens
DU-145 = experiment: as above; settings: Homo sapiens
MCF7 = experiment: as above; settings: Homo sapiens
MDA-MB-231/ATCC = experiment: as above; settings: Homo sapiens
HS 578T = experiment: as above; settings: Homo sapiens
CCRF-CEM = experiment: NCI-60 anticancer screen (SRB; single dose 10 μM and five doses); settings: Homo sapiens
[1] = 48 h, read-out: Growth Percentage

Cc1[nH]c(=S)sc1C(=O)/C=C/c1cccc([N+](=O)[O-])c1 [2h, (E)-1-(4-Methyl-2-Thioxo-2,3-Dihydrothiazol-5-yl)-3-(3-Nitrophenyl)Prop-2-En-1-One]
GI50 (SNB-19; SNB-19): 4.9 µM
IC50 (SNB-19; SNB-19): 11.8 µM
activity at 10 µM (SNB-19; SNB-19, 48 h, read-out: Growth Percentage): 10.4%
CC50 (SNB-19; SNB-19, read-out: LC50): 41.7 µM
IC (TGI) (SNB-19; SNB-19, read-out: TGI): 17 µM
GI50 (RPMI-8226; RPMI-8226): 2.04 µM
activity at 10 µM (RPMI-8226; RPMI-8226, 48 h, read-out: Growth Percentage): 9.39%
IC50 (RPMI-8226; RPMI-8226, five-dose, Leukemia RPMI-8226): 3.72 µM
CC50 (RPMI-8226; RPMI-8226, read-out: LC50): > 100 µM
IC (TGI) (RPMI-8226; RPMI-8226, read-out: TGI): 6.31 µM
GI50 (SR): 2.75 µM
IC50 (SR): 3.89 µM
activity at 10 µM (SR; [1]): -11%
CC50 (SR; read-out: LC50): > 100 µM
IC (TGI) (SR; read-out: TGI): > 100 µM
GI50 (EKVX): 5.75 µM
IC50 (EKVX): 15.1 µM
activity at 10 µM (EKVX; [1]): 0.65%
CC50 (EKVX; read-out: LC50): 46.8 µM
IC (TGI) (EKVX; read-out: TGI): 19.5 µM
GI50 (HOP-62; HOP-62): 3.98 µM
IC50 (HOP-62; HOP-62): 6.76 µM
activity at 10 µM (HOP-62; HOP-62, 48 h, read-out: Growth Percentage): 0.68%
CC50 (HOP-62; HOP-62, read-out: LC50): 40.7 µM
IC (TGI) (HOP-62; HOP-62, read-out: TGI): 12.3 µM
GI50 (NCI-H23; NCI-H23): 5.37 µM
IC50 (NCI-H23; NCI-H23): 10 µM
activity at 10 µM (NCI-H23; NCI-H23, 48 h, read-out: Growth Percentage): -72.8%
CC50 (NCI-H23; NCI-H23, read-out: LC50): 45.7 µM
IC (TGI) (NCI-H23; NCI-H23, read-out: TGI): 18.2 µM
GI50 (HCC-2998; Homo sapiens, HCC 2998): 2 µM
IC50 (HCC-2998; Homo sapiens, HCC 2998): 3.63 µM
activity at 10 µM (HCC-2998; Homo sapiens, HCC 2998, 48 h, read-out: Growth Percentage): -86.7%
CC50 (HCC-2998; Homo sapiens, HCC 2998, read-out: LC50): 11.8 µM
TGI (HCC-2998; five-dose, Colon Cancer HCC-2998): 4.57 µM
GI50 (HCT-116; HCT-116): 2.88 µM
IC50 (HCT-116; HCT-116): 3.31 µM
activity at 10 µM (HCT-116; HCT-116, 48 h, read-out: Growth Percentage): -6.25%
CC50 (HCT-116; HCT-116, read-out: LC50): > 100 µM
IC (TGI) (HCT-116; HCT-116, read-out: TGI): > 100 µM
GI50 (HT29; HT-29): 5.5 µM
IC50 (HT29; HT-29): 7.24 µM
activity at 10 µM (HT29; HT-29, 48 h, read-out: Growth Percentage): 20.4%
CC50 (HT29; HT-29, read-out: LC50): 60.3 µM
IC (TGI) (HT29; HT-29, read-out: TGI): 19.9 µM
GI50 (KM12; KM12): 3.63 µM
IC50 (KM12; KM12): 5.37 µM
activity at 10 µM (KM12; KM12, 48 h, read-out: Growth Percentage): -78.4%
CC50 (KM12; KM12, read-out: LC50): 42.7 µM
IC (TGI) (KM12; KM12, read-out: TGI): 13.2 µM
GI50 (SF-295; SF-295): 3.63 µM
IC50 (SF-295; SF-295): 8.71 µM
activity at 10 µM (SF-295; SF-295, 48 h, read-out: Growth Percentage): 4.14%
CC50 (SF-295; SF-295, read-out: LC50): 39.8 µM
IC (TGI) (SF-295; SF-295, read-out: TGI): 14.8 µM
GI50 (SF-539; SF-539): 2.19 µM
IC50 (SF-539; SF-539): 3.98 µM
activity at 10 µM (SF-539; SF-539, 48 h, read-out: Growth Percentage): -85.9%
CC50 (SF-539; SF-539, read-out: LC50): 12.9 µM
IC (TGI) (SF-539; SF-539, read-out: TGI): 4.9 µM
GI50 (LOX IMVI): 1.58 µM
IC50 (LOX IMVI): 2.75 µM
activity at 10 µM (LOX IMVI; [1]): -99%
CC50 (LOX IMVI; read-out: LC50): 6.03 µM
IC (TGI) (LOX IMVI; read-out: TGI): 3.09 µM
GI50 (MDA-MB-435; MDA-MB-435): 4.57 µM
IC50 (MDA-MB-435; MDA-MB-435): 7.41 µM
activity at 10 µM (MDA-MB-435; MDA-MB-435, 48 h, read-out: Growth Percentage): -37%
CC50 (MDA-MB-435; MDA-MB-435, read-out: LC50): 44.7 µM
IC (TGI) (MDA-MB-435; MDA-MB-435, read-out: TGI): 17 µM
GI50 (SK-MEL-5; SK-MEL-5): 13.2 µM
IC50 (SK-MEL-5; SK-MEL-5): 22.9 µM
activity at 10 µM (SK-MEL-5; SK-MEL-5, 48 h, read-out: Growth Percentage): -68.8%
CC50 (SK-MEL-5; SK-MEL-5, read-out: LC50): 51.3 µM
IC (TGI) (SK-MEL-5; SK-MEL-5, read-out: TGI): 26.3 µM
GI50 (IGROV1; IGROV-1): 3.02 µM
IC50 (IGROV1; IGROV-1): 4.9 µM
activity at 10 µM (IGROV1; IGROV-1, 48 h, read-out: Growth Percentage): 10.2%
CC50 (IGROV1; IGROV-1, read-out: LC50): 47.9 µM
IC (TGI) (IGROV1; IGROV-1, read-out: TGI): 12.3 µM
GI50 (OVCAR-4; OVCAR-4): 11 µM
IC50 (OVCAR-4; OVCAR-4): 20.4 µM
activity at 10 µM (OVCAR-4; OVCAR-4, 48 h, read-out: Growth Percentage): 13.1%
CC50 (OVCAR-4; OVCAR-4, read-out: LC50): 51.3 µM
IC (TGI) (OVCAR-4; OVCAR-4, read-out: TGI): 24 µM
GI50 (OVCAR-5; OVCAR-5): 3.63 µM
IC50 (OVCAR-5; OVCAR-5): 9.12 µM
activity at 10 µM (OVCAR-5; OVCAR-5, 48 h, read-out: Growth Percentage): -37.4%
CC50 (OVCAR-5; OVCAR-5, read-out: LC50): 38.9 µM
IC (TGI) (OVCAR-5; OVCAR-5, read-out: TGI): 13.8 µM
GI50 (OVCAR-8; OVCAR-8): 3.31 µM
IC50 (OVCAR-8; OVCAR-8): 4.57 µM
activity at 10 µM (OVCAR-8; OVCAR-8, 48 h, read-out: Growth Percentage): 13.4%
CC50 (OVCAR-8; OVCAR-8, read-out: LC50): 38 µM
IC (TGI) (OVCAR-8; OVCAR-8, read-out: TGI): 11.8 µM
GI50 (NCI/ADR-RES): 2.51 µM
IC50 (NCI/ADR-RES): 4.27 µM
activity at 10 µM (NCI/ADR-RES; [1]): 8.19%
CC50 (NCI/ADR-RES; read-out: LC50): > 100 µM
IC (TGI) (NCI/ADR-RES; read-out: TGI): 5.75 µM
GI50 (SK-OV-3; SK-OV-3): 5.89 µM
IC50 (SK-OV-3; SK-OV-3): 15.1 µM
activity at 10 µM (SK-OV-3; SK-OV-3, 48 h, read-out: Growth Percentage): 44.6%
CC50 (SK-OV-3; SK-OV-3, read-out: LC50): 45.7 µM
IC (TGI) (SK-OV-3; SK-OV-3, read-out: TGI): 18.6 µM
GI50 (CAKI-1; CAKI-1): 10.5 µM
IC50 (CAKI-1; CAKI-1): 20.4 µM
activity at 10 µM (CAKI-1; CAKI-1, 48 h, read-out: Growth Percentage): -56.5%
CC50 (CAKI-1; CAKI-1, read-out: LC50): 51.3 µM
IC (TGI) (CAKI-1; CAKI-1, read-out: TGI): 22.9 µM
GI50 (TK-10; TK-10): 11.2 µM
IC50 (TK-10; TK-10): 22.9 µM
CC50 (TK-10; TK-10, read-out: LC50): 50.1 µM
IC (TGI) (TK-10; TK-10, read-out: TGI): 23.4 µM
GI50 (UO-31; UO-31): 3.89 µM
IC50 (UO-31; UO-31): 10.7 µM
activity at 10 µM (UO-31; UO-31, 48 h, read-out: Growth Percentage): -89.6%
CC50 (UO-31; UO-31, read-out: LC50): 43.6 µM
IC (TGI) (UO-31; UO-31, read-out: TGI): 17 µM
GI50 (DU-145; DU-145): 2.4 µM
IC50 (DU-145; DU-145): 3.89 µM
activity at 10 µM (DU-145; DU-145, 48 h, read-out: Growth Percentage): 8.55%
CC50 (DU-145; DU-145, read-out: LC50): 23.4 µM
IC (TGI) (DU-145; DU-145, read-out: TGI): 6.17 µM
GI50 (MCF7; MCF7): 2.75 µM
IC50 (MCF7; MCF7): 6.31 µM
activity at 10 µM (MCF7; MCF7, 48 h, read-out: Growth Percentage): -45.4%
CC50 (MCF7; MCF7, read-out: LC50): 38 µM
IC (TGI) (MCF7; MCF7, read-out: TGI): 9.77 µM
GI50 (MDA-MB-231/ATCC; MDA-MB-231): 5.25 µM
IC50 (MDA-MB-231/ATCC; MDA-MB-231): 16.2 µM
activity at 10 µM (MDA-MB-231/ATCC; MDA-MB-231, 48 h, read-out: Growth Percentage): -17.6%
CC50 (MDA-MB-231/ATCC; MDA-MB-231, read-out: LC50): 44.7 µM
IC (TGI) (MDA-MB-231/ATCC; MDA-MB-231, read-out: TGI): 17.8 µM
GI50 (HS 578T): 17.4 µM
IC50 (HS 578T): 67.6 µM
activity at 10 µM (HS 578T; [1]): 24.5%
CC50 (HS 578T; read-out: LC50): > 100 µM
IC (TGI) (HS 578T; read-out: TGI): 52.5 µM
GI50 (CCRF-CEM): 2.14 µM
activity at 10 µM (CCRF-CEM; [1]): 13.8%
IC50 (CCRF-CEM; five-dose, Leukemia CCRF-CEM): 3.39 µM
CC50 (CCRF-CEM; read-out: LC50): > 100 µM
IC (TGI) (CCRF-CEM; read-out: TGI): 6.61 µM
